PubChem BioAssay (NCI)
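Exposure lasted 48 hours, with cells grown in 96-well plates and compounds tested at five concentrations. The concentration for full growth arrest is given as TGI.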

Assays:
Assay in all cases: NCI-60 cell line screen, 48 h
MOLT-4 leukemia = system: MOLT-4 leukemia
SF-268 CNS = system: SF-268 CNS
HOP-62 NSCLC = system: HOP-62 NSCLC
HT29 colon = system: HT29 colon
RPMI-8226 leukemia = system: RPMI-8226 leukemia
SW-620 colon = system: SW-620 colon
SR leukemia = system: SR leukemia
HOP-92 NSCLC = system: HOP-92 NSCLC
RXF 393 renal = system: RXF 393 renal
DU-145 prostate = system: DU-145 prostate
PC-3 prostate = system: PC-3 prostate

Compound | TGI (MOLT-4 leukemia) [µM] | TGI (SF-268 CNS) [µM] | TGI (HOP-62 NSCLC) [µM] | TGI (HT29 colon) [µM] | TGI (RPMI-8226 leukemia) [µM] | TGI (SW-620 colon) [µM] | TGI (SR leukemia) [µM] | TGI (HOP-92 NSCLC) [µM] | TGI (RXF 393 renal) [µM] | TGI (DU-145 prostate) [µM] | TGI (PC-3 prostate) [µM]
COc1cc(C=O)c(-c2cc3c(cc2C=O)OCO3)c(OC)c1OC | > 290 | > 290 | > 290 | 186 | > 290 | > 290 | > 290 | 241 | 154 |  | 
CCn1cnc2c(NC(C)=O)ncnc21 | > 100 |  | > 100 | > 100 | > 100 | > 100 |  | > 100 | > 100 | > 100 | > 100
c1ccc2c(c1)C(=Nc1ccc(N=C3c4ccccc4-c4ccccc43)cc1)c1ccccc1-2 | > 100 | > 100 | > 100 | > 100 | > 100 | > 100 |  | > 100 | > 100 | > 100 | > 100
C[C@@H]1OC(=O)/C(=C\N(C)C)[C@H]2CC(=O)N(CCc3cn(S(=O)(=O)C(F)(F)F)c4ccccc34)C[C@H]12 | > 100 | > 100 | > 100 |  | > 100 | > 100 |  | > 100 | > 100 |  | > 100
CC(C)=CCC[C@H](C)[C@H]1CC[C@@H](C)c2cc(O)c(C)cc21 | 51 | 31.2 | 35.6 | 37.2 | 56.2 | 56.6 |  | 32.2 | 42.2 | 37.9 | 31.3
CCNCCNC(=O)c1ccc(Br)cc1 | > 100 | > 100 |  | > 100 | > 100 | > 100 | > 100 | > 100 | > 100 |  | > 100
C/C(=N\Nc1nc2ccccc2o1)c1ccncn1 | > 100 | > 53.8 | > 68.7 | > 35.6 |  | > 39.3 | > 100 | 6.05 |  |  | 36.6
COc1cccc(-n2c(N)c(-c3nc4cc(C(F)(F)F)ccc4s3)c3ccc([N+](=O)[O-])cc3c2=O)c1 | > 100 | > 100 | > 100 | > 100 | > 100 |  |  | > 100 |  | > 100 | > 100
CN(C(=O)c1cccs1)C(=S)N1CCN(c2ccccc2)CC1 | > 100 | > 100 |  | > 100 | > 100 | > 100 | > 100 | > 100 | > 100 | > 100 | 
CN(C)CCC1(C2=CCCC2)CC/C(=C\c2ccccc2)C1=O (stereo not drawn) | 39 | 42.2 | 30 | 34.4 | 35.1 | 32.2 | > 100 | 45.6 | 26.6 |  | 
N/N=C(\C(=O)Nc1ccc([N+](=O)[O-])cc1)C(C1=Nc2cc([N+](=O)[O-])ccc2NC1)[N+](=O)[O-] (stereo not drawn) | > 100 | > 100 | > 100 | > 100 | > 100 | > 100 | > 100 | > 100 | > 100 |  | > 100
COc1cc(OC)nc(Nc2c(C#N)c3nc4ccccc4n3c3ccccc23)n1 | > 100 | > 100 | 35 | > 100 | > 100 | > 100 |  |  | 99.2 | > 100 | > 100
CCCCOC(=O)C1CN2C(=NC1(C(F)(F)F)C(F)(F)F)Sc1ccccc12 (stereo not drawn) | 84.6 | > 100 | > 100 | > 100 | > 100 | > 100 |  | > 100 | 63.4 | > 100 | 42.4
N#CC(c1cc(Cl)ncn1)c1nc2ccccc2s1 (stereo not drawn) | > 100 | 18.3 | 43.8 | 23.6 | > 100 | 22 |  | 11.1 | 42.5 | 24.2 | 
CC(=O)O[C@H]1[C@@H](N2CCN(C)CC2)C[C@H]2[C@@H]3CC=C4C[C@@H](N5CCCC5)CC[C@]4(C)[C@H]3CC[C@@]21C | > 100 | > 100 | > 100 | > 100 | 44.2 | > 100 | 5.52 | > 100 | 71.8 |  | > 100
CCNc1ncnc2n[nH]nc12 | > 100 |  | > 100 | > 100 | > 100 | > 100 |  | > 100 | > 100 | > 100 | > 100
COc1ccc(-c2nnc(CCCCCCCCc3nnc(-c4ccc(OC)cc4)o3)o2)cc1 | > 100 | > 100 | 74.2 | > 100 |  | > 100 |  | > 100 |  | > 100 | > 100
CN1OC2OC(=O)OC2[C@H]1[C@H]1O[C@H](c2ccccc2)OC1(C)c1cc(OC(=O)c2ccccc2)ccc1OC(=O)c1ccccc1 (stereo partly drawn) | > 50 | > 50 | > 50 | > 50 | > 50 | > 50 | > 50 | > 50 | > 50 |  | 
